Experimental data: US20250268854A1, “2-AMINO-5,5-DIMETHYLHEXANOIC ACID DERIVATIVES AS SORTILIN MODULATORS FOR USE IN THE TREATMENT OF DISEASE OF THE CENTRAL NERVOUS SYSTEM” (c/o Vesper Bio ApS, priority 2021, published 2025)
Where a name gives a salt, the structure may show the parent alone.

Molecular target: h-Sortilin (Homo sapiens (Human), UniProt Q99523)
Assay: Neurotensin (NTS) scintillation proximity assay (SPA): displacement of [3H]-neurotensin binding
Conditions: 150 nM 6his-Sortilin, 5 nM [3H]-Neurotensin; average of at least 2 determinations
Procedure: The exemplified compounds of the invention were tested in a Neurotensin (NTS) scintillation proximity assay (SPA). NTS, which is a 13 amino acid neuropeptide, is a sortilin ligand. The IC50 is a measure of the amount of the compound required to inhibit the binding of NTS to sortilin by 50%. […] Compound affinity was determined by measuring the displacement of [^3H]-neurotensin binding to h-Sortilin in SPA format. […] IC50 values were calculated by nonlinear regression using the sigmoid concentration-response (variable slope) using CDD Vault software. All values reported are average of at least 2 determinations.

Sequence of h-Sortilin (Q99523 78-831): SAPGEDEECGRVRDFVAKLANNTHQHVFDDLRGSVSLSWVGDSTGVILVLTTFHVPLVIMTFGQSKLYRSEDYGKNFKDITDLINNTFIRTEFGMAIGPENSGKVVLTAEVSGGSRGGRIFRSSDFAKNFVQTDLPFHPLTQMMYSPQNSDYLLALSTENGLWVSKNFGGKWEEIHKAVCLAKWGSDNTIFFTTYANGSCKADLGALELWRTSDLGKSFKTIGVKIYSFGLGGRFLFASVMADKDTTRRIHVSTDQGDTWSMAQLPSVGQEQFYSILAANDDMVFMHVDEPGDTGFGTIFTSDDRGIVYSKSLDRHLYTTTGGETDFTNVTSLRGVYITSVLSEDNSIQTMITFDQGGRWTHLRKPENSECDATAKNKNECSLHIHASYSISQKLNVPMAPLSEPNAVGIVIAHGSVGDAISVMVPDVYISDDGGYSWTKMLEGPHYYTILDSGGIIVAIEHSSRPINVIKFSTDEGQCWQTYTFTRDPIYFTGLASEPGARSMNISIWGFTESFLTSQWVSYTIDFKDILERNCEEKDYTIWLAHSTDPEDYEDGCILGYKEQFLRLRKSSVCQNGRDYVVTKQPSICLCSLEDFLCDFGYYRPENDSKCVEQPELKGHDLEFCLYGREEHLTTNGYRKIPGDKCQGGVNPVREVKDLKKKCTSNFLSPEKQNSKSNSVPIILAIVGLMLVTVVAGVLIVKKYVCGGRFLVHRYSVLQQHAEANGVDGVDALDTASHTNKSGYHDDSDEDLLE

| Structure (SMILES) | IC50 [nM] |
| --- | --- |
| Cc1cc(=O)oc2c(CN[C@@H](CCC(C)(C)C)C(=O)O)c(O)ccc12 [Example 1, (S)-2-(((7-hydroxy-4-methyl-2-oxo-2H-chromen-8-yl)methyl)amino)-5,5-dimethylhexanoic acid] | 75 |
| Cc1cc2cccc(CN[C@@H](CCC(C)(C)C)C(=O)O)c2cn1 [Example 4, (2S)-5,5-dimethyl-2-{[(3-methylisoquinolin-8-yl)methyl]amino}hexanoic acid] | 660 |
| CC(C)(C)CC[C@H](NCc1cccc2ccncc12)C(=O)O [Example 7, (2S)-2-{[(isoquinolin-8-yl)methyl]amino}-5,5-dimethylhexanoic acid] | 950 |
| CC(C)(C)CC[C@H](NC(c1ccccc1)c1ccccc1)C(=O)O [Example 8, (S)-2-(benzhydrylamino)-5,5-dimethylhexanoic acid hydrochloride] | 270 |
| CC(C)(C)CC[C@H](NCc1ccccc1OC(F)(F)F)C(=O)O [Example 10, (2S)-5,5-dimethyl-2-({[2-(trifluoromethoxy)phenyl]methyl}amino)hexanoic acid] | 975 |
| CC(C)(C)CC[C@H](NCc1ccccc1F)C(=O)O [Example 11, (2S)-2-{[(2-fluorophenyl)methyl]amino}-5,5-dimethylhexanoic acid] | 1830 |
| CC(C)(C)CC[C@H](NCc1c(F)cccc1F)C(=O)O [Example 12, (2S)-2-{[(2,6-difluorophenyl)methyl]amino}-5,5-dimethylhexanoic acid] | 2840 |
| CC(C)(C)CC[C@H](NCc1ccccc1C(F)(F)F)C(=O)O [Example 13, (2S)-5,5-dimethyl-2-({[2-(trifluoromethyl)phenyl]methyl}amino)hexanoic acid] | 1020 |
| C[C@@H](N[C@@H](CCC(C)(C)C)C(=O)O)c1ccccc1 [Example 14, (S)-5,5-dimethyl-2-(((R)-1-phenylethyl)amino)hexanoic acid hydrochloride] | 610 |
| C[C@H](N[C@@H](CCC(C)(C)C)C(=O)O)c1ccccc1 [Example 15, (S)-5,5-dimethyl-2-(((S)-1-phenylethyl)amino)hexanoic acid hydrochloride] | 3480 |
| CC(C)(C)CC[C@H](N[C@@H](c1ccccc1)C(F)(F)F)C(=O)O [Example 16, (S)-5,5-dimethyl-2-(((S)-2,2,2-trifluoro-1-phenylethyl)amino)hexanoic acid] | 1480 |
| CC(C)(C)CC[C@H](N[C@@H](c1ccccc1)C(F)F)C(=O)O [Example 17, (2S)-2-{[(1S)-2,2-difluoro-1-phenylethyl]amino}-5,5-dimethylhexanoic acid] | 1610 |
| CC(C)(C)CC[C@H](N[C@H](c1ccccc1)C(F)(F)F)C(=O)O [Example 18, (S)-5,5-dimethyl-2-(((R)-2,2,2-trifluoro-1-phenylethyl)amino)hexanoic acid] | 725 |
| CC(C)(C)CC[C@H](N[C@H](c1ccccc1)C(F)F)C(=O)O [Example 19, (2S)-2-{[(1R)-2,2-difluoro-1-phenylethyl]amino}-5,5-dimethylhexanoic acid] | 565 |
| CC(C)(C)CC[C@H](NC1=Nc2ccccc2Oc2ccccc21)C(=O)O [Example 20, (2S)-5,5-dimethyl-2-({2-oxa-9-azatricyclo[9.4.0.0^3,8]pentadeca-1(11),3(8),4,6,9,12,14-heptaen-10-yl}amino)hexanoic acid] | 1490 |
| CC(C)(C)CC[C@H](NCc1cccc(CO)c1)C(=O)O [Example 25, (2S)-2-({[3-(hydroxymethyl)phenyl]methyl}amino)-5,5-dimethylhexanoic acid] | 1380 |
| CC(C)(C)CC[C@H](NCc1cc(Cl)cc(Cl)c1)C(=O)O [Example 32, (2S)-2-{[(3,5-dichlorophenyl)methyl]amino}-5,5-dimethylhexanoic acid] | 840 |
| CC(C)(C)CC[C@H](NCc1ccc2ccccc2n1)C(=O)O [Example 36, (2S)-5,5-dimethyl-2-{[(quinolin-2-yl)methyl]amino}hexanoic acid] | 1600 |
| COc1ccc(CN[C@@H](CCC(C)(C)C)C(=O)O)cc1F [Example 37, (2S)-2-{[(3-fluoro-4-methoxyphenyl)methyl]amino}-5,5-dimethylhexanoic acid] | 710 |
| CC(C)(C)CC[C@H](NCc1cccc2c1CCCC2)C(=O)O [Example 39, (2S)-5,5-dimethyl-2-{[(5,6,7,8-tetrahydronaphthalen-1-yl)methyl]amino}hexanoic acid] | 360 |
| CC(C)(C)CC[C@H](NCc1ccc2nccnc2c1)C(=O)O [Example 42, (2S)-5,5-dimethyl-2-{[(quinoxalin-6-yl)methyl]amino}hexanoic acid] | 400 |
| CC(C)(C)CC[C@H](NCc1cnc2[nH]ccc2c1)C(=O)O [Example 43, (2S)-5,5-dimethyl-2-[({1H-pyrrolo[2,3-b]pyridin-5-yl}methyl)amino]hexanoic acid] | 470 |
| CC(C)(C)CC[C@H](NCc1ccnc2[nH]ccc12)C(=O)O [Example 44, (2S)-5,5-dimethyl-2-[({1H-pyrrolo[2,3-b]pyridin-4-yl}methyl)amino]hexanoic acid] | 850 |
| CC(C)(C)CC[C@H](NCc1cccc2cccnc12)C(=O)O [Example 47, (2S)-5,5-dimethyl-2-{[(quinolin-8-yl)methyl]amino}hexanoic acid] | 1950 |
| CC(C)(C)CC[C@H](NCc1cccc2ncccc12)C(=O)O [Example 48, (2S)-5,5-dimethyl-2-{[(quinolin-5-yl)methyl]amino}hexanoic acid] | 1060 |

| Structure (SMILES) | IC50 [nM] |
| --- | --- |
| COc1ccc2ccccc2c1CN[C@@H](CCC(C)(C)C)C(=O)O [Example 49, (2S)-2-{[(2-methoxynaphthalen-1-yl)methyl]amino}-5,5-dimethylhexanoic acid] | 1990 |
| CC(C)(C)CC[C@H](NCc1ccc2scnc2c1)C(=O)O [Example 51, (2S)-2-{[(1,3-benzothiazol-5-yl)methyl]amino}-5,5-dimethylhexanoic acid] | 320 |
| Cn1nccc1CN[C@@H](CCC(C)(C)C)C(=O)O [Example 52, (2S)-5,5-dimethyl-2-{[(1-methyl-1H-pyrazol-5-yl)methyl]amino}hexanoic acid] | 1560 |
| CC(C)(C)CC[C@H](NCc1ccc2ncsc2c1)C(=O)O [Example 53, (2S)-2-{[(1,3-benzothiazol-6-yl)methyl]amino}-5,5-dimethylhexanoic acid] | 590 |
| Cn1ncc2ccc(CN[C@@H](CCC(C)(C)C)C(=O)O)cc21 [Example 54, (2S)-5,5-dimethyl-2-{[(1-methyl-1H-indazol-6-yl)methyl]amino}hexanoic acid] | 870 |
| CC(C)(C)CC[C@H](NCc1ccccc1-c1ccncc1)C(=O)O [Example 56, (2S)-5,5-dimethyl-2-({[2-(pyridin-4-yl)phenyl]methyl}amino)hexanoic acid] | 1910 |
| CC(C)(C)CC[C@H](NCc1cccc(-n2ccnc2)c1)C(=O)O [Example 57, (2S)-2-({[3-(1H-imidazol-1-yl)phenyl]methyl}amino)-5,5-dimethylhexanoic acid] | 1290 |
| CC(C)(C)CC[C@H](NCc1ccncc1)C(=O)O [Example 58, (2S)-5,5-dimethyl-2-{[(pyridin-4-yl)methyl]amino}hexanoic acid] | 810 |
| CC(C)(C)CC[C@H](NCc1ccccc1CO)C(=O)O [Example 59, (S)-2-((2-(hydroxymethyl)benzyl)amino)-5,5-dimethylhexanoic acid hydrochloride] | 1280 |
| Cn1ncc2c(CN[C@@H](CCC(C)(C)C)C(=O)O)cccc21 [Example 61, (2S)-5,5-dimethyl-2-{[(1-methyl-1H-indazol-4-yl)methyl]amino}hexanoic acid] | 2830 |
| CC(C)(C)CC[C@H](NCc1cccc2[nH]ccc12)C(=O)O [Example 62, (2S)-2-{[(1H-indol-4-yl)methyl]amino}-5,5-dimethylhexanoic acid] | > 9980 |
| Cn1ccc2ccc(CN[C@@H](CCC(C)(C)C)C(=O)O)cc21 [Example 67] | 3310 |
| Cn1ccc2cccc(CN[C@@H](CCC(C)(C)C)C(=O)O)c21 [Example 68] | 1200 |
| CC(C)(C)CC[C@H](NCc1cccnc1)C(=O)O [Example 71, (2S)-5,5-dimethyl-2-{[(pyridin-3-yl)methyl]amino}hexanoic acid] | 1130 |
| Cc1ccc(CN[C@@H](CCC(C)(C)C)C(=O)O)cn1 [Example 72] | 1240 |
| CC(C)(C)CC[C@H](NCc1ccc(Cl)cc1)C(=O)O [Example 76, (2S)-2-{[(4-chlorophenyl)methyl]amino}-5,5-dimethylhexanoic acid] | 790 |
| CC(C)(C)CC[C@H](NCc1cncc(Br)c1)C(=O)O [Example 77, (2S)-2-{[(5-bromopyridin-3-yl)methyl]amino}-5,5-dimethylhexanoic acid] | 600 |
| COc1ccc(CN[C@@H](CCC(C)(C)C)C(=O)O)c2ccccc12 [Example 79] | 950 |
| CC(C)(C)CC[C@H](NCc1cncc2ccccc12)C(=O)O [Example 80] | 790 |
| CC(C)(C)CC[C@H](NCc1cccc2cnccc12)C(=O)O [Example 81] | 790 |
| Cc1cccc(CN[C@@H](CCC(C)(C)C)C(=O)O)c1C [Example 83, (2S)-2-{[(2,3-dimethylphenyl)methyl]amino}-5,5-dimethylhexanoic acid] | 700 |
| COc1ccc2cc(CN[C@@H](CCC(C)(C)C)C(=O)O)ccc2c1 [Example 85] | 1050 |
| COc1cncc(CN[C@@H](CCC(C)(C)C)C(=O)O)c1 [Example 86] | 790 |
| COc1cc(CN[C@@H](CCC(C)(C)C)C(=O)O)ccn1 [Example 87] | 530 |
| CC(C)(C)CC[C@H](NCc1ccnc(Cl)c1F)C(=O)O [Example 89, (2S)-2-{[(2-chloro-3-fluoropyridin-4-yl)methyl]amino}-5,5-dimethylhexanoic acid] | 790 |
